According to ChEMBL document CHEMBL3639225, “Perfluorinated cyclopropyl fused 1,3-oxazin-2-amine compounds as beta-secretase inhibitors and methods of use” (2015):

Molecular target: Cathepsin D (Homo sapiens, UniProt P07339)
Assay: Fluorescence Resonance Energy Transfer Assay: Recombinant Cat D was expressed in CHO cells. The assay buffer for CathepsinD is 0.05 M citrate pH 3.5, 10% DMSO final, 5 mM CHAPS. The Cat D enzyme (9 nM) is pre-incubated for one hour with inhibitors, typically in about 1 uL of DMSO according to a serial dilution, is added thereto. The assays are effectively started by the addition of different FRET substrates (20 nM for Cat D) and the combination is incubated for one hour. The FRET assay is terminated with by addition of Tris buffer, which raises the pH to neutrality, and the fluorescence is determined. The FRET substrate is a peptide with commercially available fluorophore and quencher, on opposite sides of the BACE cleavage site. The Cat D substrate peptide sequence is based on sequence #1 of Table 1 from Gulnik et al. FEBS Letters v413 p379-384 1997. Proteolytic cleavage of the FRET substrate releases quenching of fluorescence (Cat D excitation 500 nm and emission 580 nm).
Type: cell-based

Cathepsin D, sequence (P07339 65-162 limits assumed): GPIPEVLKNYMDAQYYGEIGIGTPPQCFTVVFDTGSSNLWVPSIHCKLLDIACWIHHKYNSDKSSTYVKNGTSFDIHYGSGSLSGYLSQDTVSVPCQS
Cathepsin D, sequence (P07339 169-412 limits assumed): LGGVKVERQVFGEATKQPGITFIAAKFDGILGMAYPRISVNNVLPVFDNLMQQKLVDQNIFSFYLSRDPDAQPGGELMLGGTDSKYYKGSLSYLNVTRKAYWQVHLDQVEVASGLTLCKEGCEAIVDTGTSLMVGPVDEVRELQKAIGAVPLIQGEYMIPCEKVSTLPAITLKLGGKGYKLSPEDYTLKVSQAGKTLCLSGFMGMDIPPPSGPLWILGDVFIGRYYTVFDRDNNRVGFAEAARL

Row | IC50 [µM] | SMILES
1 | 1020 | NC1=N[C@@](c2cc(NC(=O)c3ncc(Br)cn3)ccc2F)(C(F)F)[C@H]2C[C@H]2O1
2 | 171 | Cc1cc(NC(=O)c2ccc(Cl)cc2CF)cc([C@@]2(C(F)F)N=C(N)O[C@@H]3C[C@@H]32)c1F
3 | 533 | NC1=N[C@](CF)(c2cc(NC(=O)c3ncc(Cl)cc3CO)ccc2Cl)[C@H]2C[C@H]2O1

Row | SMILES | IC50 [µM]
4 | NC1=N[C@](CF)(c2cc(NC(=O)c3ccc(Cl)cn3)cc(F)c2F)[C@H]2C[C@H]2O1 | 229
